# Measurements: patent publication US9132161B2
# How the values were obtained:
# ERβ [1] = target: T1, ERβ (Homo sapiens, UniProt Q92731); assay: TNF-RE tkLuc repression in U2OS cells, ERβ; type: cell-based; design: expressed in transfected cells
# ERβ [2] = target: T1, ERβ; details: in the presence of ERβ
# TNF-RE tkLuc = assay: Antiestrogen effect on TNF-RE tkLuc (Example 2); type: cell-based, human; details: for effect on the repression induced by E2: TNF-RE tkLuc; for activation of TNF-RE tkLuc: antiestrogens, in contrast to E2
# ERβ [3] = target: T1, ERβ; assay: ERE-tk-Luc luciferase assay in U2OS cells, ERβ; type: cell-based; design: expressed in transfected cells; host or cells: U2OS (human osteosarcoma), electroporated; details: competition with herb 6, U2OS cells, FIG. 6
# [4] = test system: postmenopausal women who have osteoporosis; details: median follow-up of 40 months, cited from earlier work
# [5] = test system: women with estrogen receptor-positive breast cancer; details: five years of therapy; cited from earlier work
# [6] = test system: women considered to be at high risk for breast cancer; details: cited from earlier work
# T1 sequence (Q92731 whole entry): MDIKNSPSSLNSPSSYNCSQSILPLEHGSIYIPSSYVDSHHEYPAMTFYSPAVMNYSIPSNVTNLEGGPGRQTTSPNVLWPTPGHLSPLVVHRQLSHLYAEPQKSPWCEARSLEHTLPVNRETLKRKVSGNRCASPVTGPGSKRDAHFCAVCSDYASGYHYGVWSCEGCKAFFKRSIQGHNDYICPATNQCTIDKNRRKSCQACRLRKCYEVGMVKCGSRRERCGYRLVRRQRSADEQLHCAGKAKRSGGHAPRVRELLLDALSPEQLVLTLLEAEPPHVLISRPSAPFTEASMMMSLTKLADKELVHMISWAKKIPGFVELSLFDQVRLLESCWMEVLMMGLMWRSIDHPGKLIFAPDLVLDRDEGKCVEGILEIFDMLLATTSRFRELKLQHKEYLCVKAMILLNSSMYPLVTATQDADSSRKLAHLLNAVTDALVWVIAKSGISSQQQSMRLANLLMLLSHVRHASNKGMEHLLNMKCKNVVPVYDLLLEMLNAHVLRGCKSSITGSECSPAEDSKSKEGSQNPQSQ
Structure (SMILES),repression of TNF-α activation of TNF-RE (ERβ [1]),repression of TNF-α activation of TNF-RE tkLuc (ERβ [2]),effect on the repression induced by E2 (TNF-RE tkLuc),activation of TNF-RE tkLuc (TNF-RE tkLuc),effect on herb 6 stimulation of the ERE with ERβ (ERβ [3]),cases of breast cancer in the treatment group ([4]; among 5129 women),RR of breast cancer versus placebo [4],reduction of mortality from breast cancer [5],reduction of the risk of recurrences [5],reduction of the risk of primary invasive breast cancer [6]
"C[C@]12CC[C@@H]3c4ccc(O)cc4CC[C@H]3[C@@H]1CC[C@@H]2O [E2, estradiol]",100%,60-80%,,,,,,,,
"C[C@]12CC[C@@H]3c4ccc(O)cc4C[C@@H](CCCCCCCCC[S+]([O-])CCCC(F)(F)C(F)(F)F)[C@H]3[C@@H]1CC[C@@H]2O (some centres unmarked) [ICI 182, 780]",,,abolished the repression induced by E2,2 fold,,,,,,
O=C(c1ccc(OCCN2CCCCC2)cc1)c1c(-c2ccc(O)cc2)sc2cc(O)ccc12 [raloxifene],,,abolished the repression induced by E2,2 fold,inhibited,13 cases,0.24,,,
CC/C(=C(\c1ccccc1)c1ccc(OCCN(C)C)cc1)c1ccccc1 [tamoxifen],,,abolished the repression induced by E2,2 fold,,,,22%,42%,49%
